Experimental data: US9662329B2, “Use of survivin antagonists in polyomavirus-related disease” (University of Pittsburgh—Of the Commonwealth System of …, priority 2012, dated 2017)

How the values were obtained:
MKL-1 cells = experiment: Immunoblotting for cPARP, cCaspase 3 and LC3; type: cell-based, human; conditions: 100 nM, 48 hours
MCC cell lines = experiment: cells; conditions: Homo sapiens, read-out: EC50, active in vitro at low doses
Description: (§1) Serial drug dilutions from 10^−4 M to 10^−9 M were used on MCC and non-MCC cell lines. Cells were seeded into 384-well plates at 6000 cells in 50 μl of medium per well. After 24 hours, 25 μl of 3× drugs were added at increasing concentration to each well. Cell viability was then measured using Cell Titer Glo (Promega) kit following manufacturer's instructions as described previously. Each drug concentration was tested in triplicate for each cell line and experiments were repeated twice. EC50 doses for the drugs were calculated using a four parameter logistic equation (GraphPad Prism).

MKL-2 = experiment: Cell Titer Glo dose-response study; type: cell-based, human; conditions: Homo sapiens, read-out: EC50 concentrations for MCC cell lines, MKL-2
Text: (§2) Seven Merkel cell carcinoma cell lines: MKL-1, MKL-2, MS-1, UISO, MCC13, MCC26 and WaGa (kind gift of Jurgen Becker (Houben et al., Merkel cell polyomavirus-infected Merkel cell carcinoma cells require expression of viral T antigens. J Virol 84, 7064 (July, 2010); Ronan et al., Merkel cell carcinoma: in vitro and in vivo characteristics of a new cell line. J Am Acad Dermatol 29, 715 (November, 1993); Rosen et al., Establishment and characterization of a neuroendocrine skin carcinoma cell line. Lab Invest 56, 302 (March, 1987)); NCI-H69 small cell lung cancer cell line (ATCC); 293 human embryonic kidney cells (ATCC); U2OS osteosarcoma cell line (kind gift of Ole Gjoerup); BJhTERT immortalized foreskin fibroblast cell line (kind gift of Ole Gjoerup); and BJ primary foreskin fibroblasts (ATCC) were used to screen and evaluate the small molecules examined in this study (Houben et al., J Virol 84, 7064 (July, 2010); Ronan et al., J Am Acad Dermatol 29, 715 (November, 1993); Rosen et al., Lab Invest 56, 302 (March, 1987)). The Merkel cell lines and NCI-H69 were grown in RPMI 1640 supplemented with 10% fetal calf serum, penicillin and streptomycin at 37° C. in humidified air containing 5% CO2. The remaining cell lines were grown in DMEM supplemented with 10% fetal calf serum.
(§3) For EC50 measurements, dose-response curves were established for 17 drugs obtained individually in bulk stocks. Iodoacetamide (I1149), sanguarine chloride (S5890), NSC95397 (N1786), chelerythrine chloride (C2932), calmidazolium chloride (C3930), tetraethylthiuram disulfide (T1132), bay 11-7085 (B5681), quinacrine dihydro chloride (Q3251), ellipticine (E3380), amsacrine hydrochloride (A9809) and nutlin-3 (N6287) were purchased from Sigma Aldrich, USA.
as §1, with “Compounds that met the selection criteria <10% cell survival were purchased or obtained in bulk from NCI/NIH Developmental Therapeutics Program. Serial” for “Serial”

WaGa = experiment: Cell Titer Glo dose-response study; type: cell-based, human; conditions: Homo sapiens, read-out: EC50 concentrations for MCC cell lines, WaGa
Text: as §2, §3
as §1, with “Compounds that met the selection criteria <10% cell survival were purchased or obtained in bulk from NCI/NIH Developmental Therapeutics Program. Serial” for “Serial”

MKL-1 = experiment: Cell Titer Glo dose-response study; type: cell-based, human; conditions: Homo sapiens, MKL-1, read-out: EC50 concentrations for MCC cell lines, MKL-1
Text: as §2, §3
as §1, with “Compounds that met the selection criteria <10% cell survival were purchased or obtained in bulk from NCI/NIH Developmental Therapeutics Program. Serial” for “Serial”

MS-1 = experiment: Cell Titer Glo dose-response study; type: cell-based, human; conditions: Homo sapiens, MS-1, read-out: EC50 concentrations for MCC cell lines, MS-1
Text: as §2, §3
as §1, with “Compounds that met the selection criteria <10% cell survival were purchased or obtained in bulk from NCI/NIH Developmental Therapeutics Program. Serial” for “Serial”

UISO = experiment: Cell Titer Glo dose-response study; type: cell-based, human; conditions: Homo sapiens, read-out: EC50 concentrations for MCC cell lines, UISO
Text: as §2, §3
as §1, with “Compounds that met the selection criteria <10% cell survival were purchased or obtained in bulk from NCI/NIH Developmental Therapeutics Program. Serial” for “Serial”

[1] = system: human MKL-1 MCC xenografts
Description: Compounds were dissolved in sterile 0.9% saline solution for administration to animals.
Six-week-old female triple immune-deficient NSG (Nod-SCID gamma) mice (Jackson Laboratory) were maintained in a specific pathogen-free environment.
MCC cells were checked for viability >90% by trypan blue staining, resuspended in PBS (2×10^7 cells in 100 μl) and inoculated subcutaneously into the right flank of mice.
All treatments were delivered for three consecutive weeks. […] YM-155 (2 mg/kg) was given intraperitoneally on five consecutive days, followed by a two-day treatment free interval.
Two-tailed paired Student's t test was used to analyze statistical differences in qRT-PCR results. Mouse survival curves were estimated using the Kaplan-Meier product-limit method and were compared using the log-rank test (GraphPad Software, La Jolla, Calif.). A piecewise linear hierarchical Bayesian model (Zhao et al., Bayesian hierarchical changepoint methods in modeling the tumor growth profiles in xenograft experiments. Clinical Cancer Res 17, 1057 (Mar. 1, 2011)) was used to characterize differences in tumor volumes and growth between treatments.
Cells of Merkel cell polyomavirus (+) carcinoma cell lines MKL-1, MS-1, WaGa, and MKL-2 were checked for viability >90% by trypan blue staining, resuspended in PBS (2×10^7 cells in 100 μl) and inoculated subcutaneously into the right flank of mice.
YM-155 was given intraperitoneally on five consecutive days, followed by a two-day treatment free interval. For YM155 this treatment continued for three weeks or until mice were euthanized. Mice were euthanized upon showing a tumor having a diameter of 20 mm, or upon a showing of significant distress (>20% weight loss or when they became moribund). Caliper measurements of the longest perpendicular tumor diameters were performed every other day and tumor volumes were calculated using the formula: (width)^2×(length/2). Survival was defined as time from the first day of treatment until death/sacrifice.

[2] = Example 2, 1 mg/kg for three weeks
[3] = three weeks treatment, bortezomib 1 mg/kg twice weekly, YM155 2 mg/kg 5 times weekly

SMILES: CC(C)C[C@H](NC(=O)[C@H](Cc1ccccc1)NC(=O)c1cnccn1)B(O)O [Bortezomib]
- apoptosis measured by caspase 3 and PARP cleavage (MKL-1 cells): activated PARP and caspase cleavage
- EC50 (MCC cell lines): 1.3 to 13.2 nM
- EC50 (MKL-2): 5 nM
- EC50 (WaGa): 1 nM
- EC50 (MKL-1): 13 nM
- EC50 (MS-1): 2 nM
- EC50 (UISO): 3 nM
- survival compared to saline [1, 2]: survived as long as those receiving saline
- time after treatment began at which the last animal died [1, 2]: approximately one month
- tolerability / adverse effects in mice ([1]; bortezomib 1 mg/kg twice weekly, YM155 2 mg/kg 5 times weekly): associated with mouse lethargy and weight loss
- mice dying during treatment (up to day 19) [1, 3]: 67%
- xenograft tumor growth / progression during treatment [1, 3]: did not significantly affect MCC tumor progression or volume
